# In patent US20150250785A1, “Tropomyosin-Related Kinase Inhibitors” (PFIZER LIMITED, priority 2012, published 2015):
# Target: T1, TRKA (NTRK1) recombinant His-tagged cytoplasmic domain aa 441-796 (Homo sapiens, UniProt P04629)
# T1 construct: aa 441-; 4 nM; 40 uM; 35 min; (NTRK1); 796; His; purchased Invitrogen PV3144
# Test: Isolated TRK enzyme assay (HTRF KinEASE-TK), PV3144 TrkA
# Format: biochemical
# Settings: 4 nM enzyme, 40 uM ATP, 35 min, arithmetic mean where more than one reading
# Experimental: Isolated TRK Enzyme assays use the HTRF KinEASE-TK kit (Cisbio Cat#62TK0PEJ) with recombinant His-tagged cytoplasmic domains of each TRK receptor sourced from Invitrogen (see table below). This activity-assay measures the phosphorylation of tyrosine residues within a substrate from the HTRF kit which has been validated by Cisbio for a variety of tyrosine kinases including the TRK receptors.
# 0.5 mM stock solutions of test compounds are prepared and serially diluted in 100% DMSO. A standard curve using the compound of Example 135 disclosed in WO2005/116035 of 150 uM is also prepared on each test plate. High percentage effect (HPE) is defined by 150 uM (using the compound of Example 135 as disclosed in WO2005/116035) and 0% effect (ZPE) is defined by 100% DMSO. Greiner low volume black plates containing 0.2 ul of serially diluted compound, standard and HPE/ZPE are created using the Bravo nanolitre dispenser.
# 1× enzyme buffer is prepared from 5× Enzymatic Buffer from the Cisbio KinEASE TK kit using MilliQ water. The buffer is then supplemented with 10 mM MgCl and 2 mM DTT (both from Sigma). In the case of TRKB, the buffer is also supplemented with 125 nM Supplement Enzymatic Buffer (SEB) from the Cisbio kit.
# 2×FAC of enzyme and 2×FAC ATP diluted in 1× complete enzyme buffer is incubated at room temperature for 20 minutes to preactivate the enzyme. Following this preactivation step, 5 ul/well of enzyme+ATP mix is added using a Multidrop Micro to the assay plate, spotted with 0.2 ul 100% DMSO compound. […]
# After the Detection Reagent addition, plates are covered and incubated at room temperature for 60 minutes. HTRF signal is read using an Envision reader, measured as a ratio of emissions at two different wavelengths, 620 nm and 665 nm. […] Test compound data are expressed as percentage inhibition defined by HPE and ZPE values for each plate. […]
# Below are TrkA IC50 data generated using the PV3144 TrkA enzyme assay. Where more than one reading was taken, the arithmetic mean is presented.
# T1 sequence (P04629 441-796): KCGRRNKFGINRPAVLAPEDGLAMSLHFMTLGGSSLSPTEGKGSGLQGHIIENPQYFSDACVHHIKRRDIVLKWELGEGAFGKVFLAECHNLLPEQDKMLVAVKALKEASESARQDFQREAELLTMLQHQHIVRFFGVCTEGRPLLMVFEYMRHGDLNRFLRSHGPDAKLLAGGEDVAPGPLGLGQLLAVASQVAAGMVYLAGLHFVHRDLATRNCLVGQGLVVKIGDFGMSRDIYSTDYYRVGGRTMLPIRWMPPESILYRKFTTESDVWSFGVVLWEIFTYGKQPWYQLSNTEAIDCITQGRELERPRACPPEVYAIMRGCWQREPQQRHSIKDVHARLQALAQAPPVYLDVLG
row,IC50,Compound
1,21 nM,"CC(C)n1nc(C(=O)c2ccnc(NC(=O)Cc3coc(C4CC4)n3)c2)c2cnccc21 [Example 1, 2-(2-cyclopropyl-1,3-oxazol-4-yl)-N-{4-[(1-isopropyl-1H-pyrazolo[4,3-c]pyridin-3-yl)carbonyl]pyridin-2-yl}acetamide]"
2,20.4 nM,"CC(C)n1nc(C(=O)c2ccnc(NC(=O)Cc3ccc(C#N)cc3)c2)c2cnccc21 [Example 2, 2-(4-cyanophenyl)-N-{4-[(1-isopropyl-1H-pyrazolo[4,3-c]pyridin-3-yl)carbonyl]pyridin-2-yl}acetamide]"
3,16.6 nM,"CC(C)c1nc(C(=O)c2ccnc(NC(=O)Cn3ccc(C(F)(F)F)n3)c2)c2cnccn12 [Example 3, N-{4-[(3-isopropylimidazo[1,5-a]pyrazin-1-yl)carbonyl]pyridin-2-yl}-2-[3-(trifluoromethyl)-1H-pyrazol-1-yl]acetamide]"
